Data taken from patent US6515025B2, “Use of ethynyl alanine amino diol compounds to inhibit enzymatic conversion of angiotensinogen to angiotensin I” (Pharmacia Corporation, priority 1991, dated 2003).
Values joined by “and” are separate entries in the source; they are usually repeats but may differ in a detail not shown here. Equal values may be shown once. Read-outs that look alike come from different tables or passages of the source.

Experiments:
[1] = Oral bioavailability studies in dogs (plasma concentration by bioassay); assay type: in vivo; details: dog
Method: (§1) The bioavailability in marmosets and dogs was determined by sampling the blood via the femoral vein at various time points after administering the renin inhibitor compounds of the invention in polyethylene glycol 400 at an intragastric dose of 10 mg/kg or at an intravenous dose of 1 mg/kg. Compound concentration in plasma was determined using the bioassay technique described below. The percent bioavailability was calculated by dividing the area under the concentration-vs.-time curve obtained from the intragastric experiment by the area under the concentration-vs.-time curve obtained from the intravenous experiment (adjusting for different doses), and multiplying the result by 100%. The bioavailibility of Example 1 compound is 27% in marmosets and 33% in dogs.
(§2) Renin inhibitor plasma concentrations were determined by a bioassay. The plasma samples were extracted with acetonitrile and the extract was evaporated to dryness under nitrogen. Residue was dissolved in 4% bovine serum albumin containing 0.9% NaCl and 5% EDTA. The dissolved residue (0.1 ml) was incubated with a reaction mixture containing human plasma (0.12 ml), 5% phenylmethysulfonylfluoride (1.2 ul), 10% neomycin (2.4 ul), 0.5 M TES buffer (pH 7.4, 24 ul), and 0.6 mU/ml recombinant human renin (1000 U/mg, 50 ul) at 37° C. for 90 minutes. The renin activity was determined by a standard angiotensin I radioimmunoassay (New England Nuclear Corp.). The amount of test compound in the plasma was determined by comparing the extent of inhibition of renin activity with that produced by a known amount of test compound added to plasma and analyzed above.

[2] = Oral bioavailability studies in marmosets (plasma concentration by bioassay); assay type: in vivo; details: marmoset, IG at 10 mg/kg, Test Run A, 30 min, individual animals; 10 mg/kg
Method: as §1, §2

SMILES: C#CC[C@H](NC(=O)C(CC(=O)N(C)CCN(C)C)Cc1ccccc1)C(=O)NC(CC1CCCCC1)[C@@H](O)C(O)CC(C)C (relative stereo) [Example 1, N1-[1R*-[[[1S,1R*-(cyclohexylmethyl)-2S*,3R*-dihydroxy-5-methylhexyl]amino]carbonyl]-3-butynyl]-N4-[2-(dimethylamino)ethyl]-N4-methyl-2S*-(phenylmethyl)butanediamide]
- Oral (%) Bioavail, Mean ± SE ([1]; IG 10 mg/kg vs IV 1 mg/kg): 33.1 ± 3.8%
- Oral (%) Bioavail ([1]; IG 10 mg/kg vs IV 1 mg/kg, individual animals): 35.8% and 25.6% and 38.0%
- Estimated Plasma Concentration ([1]; IG at 10 mg/kg, 15 min, individual animals, 10 mg/kg): 105.7 ng/mL and <2.0 ng/mL and 265.6 ng/mL
- Estimated Plasma Concentration ([1]; IG at 10 mg/kg, 30 min, individual animals, 10 mg/kg): 495.9 ng/mL and 330.4 ng/mL and 864.7 ng/mL
- Estimated Plasma Concentration ([1]; IG at 10 mg/kg, 1 hr, individual animals, 10 mg/kg): 859.6 ng/mL
- Estimated Plasma Concentration ([1]; IG at 10 mg/kg, 2 hr, individual animals, 10 mg/kg): 352.7 ng/mL and 554.5 ng/mL
- Estimated Plasma Concentration ([1]; IG at 10 mg/kg, 4 hr, individual animals, 10 mg/kg): 68.8 ng/mL and 130.3 ng/mL
- Estimated Plasma Concentration ([1]; IG at 10 mg/kg, 6 hr, individual animals, 10 mg/kg): 47.1 ng/mL and 72.4 ng/mL
- Estimated Plasma Concentration ([1]; IG at 10 mg/kg, 8 hr, individual animals, 10 mg/kg): 25.4 ng/mL and 45.4 ng/mL
- Estimated Plasma Concentration ([1]; IG at 10 mg/kg, 24 hr, individual animals, 10 mg/kg): 8.4 ng/mL and 8.0 ng/mL
- Estimated Plasma Concentration ([1]; IV at 1 mg/kg, 2 min, individual animals, 1 mg/kg): 3284.4 ng/mL and 2982.7 ng/mL
- Estimated Plasma Concentration ([1]; IV at 1 mg/kg, 5 min, individual animals, 1 mg/kg): 680.9 ng/mL and 521.1 ng/mL
- Estimated Plasma Concentration ([1]; IV at 1 mg/kg, 10 min, individual animals, 1 mg/kg): 307.1 ng/mL and 218.0 ng/mL
- Estimated Plasma Concentration ([1]; IV at 1 mg/kg, 15 min, individual animals, 1 mg/kg): 144.4 ng/mL and 146.9 ng/mL
- Estimated Plasma Concentration ([1]; IV at 1 mg/kg, 30 min, individual animals, 1 mg/kg): 102.8 ng/mL and 122.5 ng/mL
- Estimated Plasma Concentration ([1]; IV at 1 mg/kg, 1 hr, individual animals, 1 mg/kg): 67.6 ng/mL and 50.0 ng/mL
- Estimated Plasma Concentration ([1]; IV at 1 mg/kg, 2 hr, individual animals, 1 mg/kg): 56.0 ng/mL and 69.8 ng/mL
- Estimated Plasma Concentration ([1]; IV at 1 mg/kg, 4 hr, individual animals, 1 mg/kg): 23.5 ng/mL
- Estimated Plasma Concentration ([1]; IV at 1 mg/kg, 6 hr, individual animals, 1 mg/kg): 10.2 ng/mL and 13.5 ng/mL
- Estimated Plasma Concentration ([1]; IV at 1 mg/kg, 8 hr, individual animals, 1 mg/kg): 4.9 ng/mL and 6.1 ng/mL
- Estimated Plasma Concentration ([1]; IV at 1 mg/kg, 24 hr, individual animals, 1 mg/kg): 1.5 ng/mL and 1.3 ng/mL
- Vd ([1]; individual animals): 8.7 L/kg and 8.3 L/kg
- t1/2 ([1]; individual animals): 4.4 h and 4.3 h
- half-life ([1]; plasma, dogs, read-out: terminal half-life (converted)): 4.7 h
- Vd ([1]; plasma, dogs, read-out: volume of distribution): 9.5 L/kg
- Vd ([1]; plasma, individual animals, read-out: Vd): 11.5 L/kg
- half-life ([1]; plasma, individual animals, read-out: t1/2 (converted)): 5.3 h
- concentration at 2 min ([1]; plasma, iv, 1 mg/kg, IV at 1 mg/kg, 2 min, individual animals, read-out: Estimated Plasma Concentration): 2420 ng/mL
- concentration at 2 min ([1]; plasma, iv, 1 mg/kg, IV at 1 mg/kg, 2 min, read-out: Estimated Plasma Concentration, Mean ± SE): 2890 ± 254 ng/mL
- concentration at 5 min ([1]; plasma, iv, 1 mg/kg, IV at 1 mg/kg, 5 min, individual animals, read-out: Estimated Plasma Concentration): 613 ng/mL
- concentration at 5 min ([1]; plasma, iv, 1 mg/kg, IV at 1 mg/kg, 5 min, read-out: Estimated Plasma Concentration, Mean ± SE): 605 ± 46.3 ng/mL
- concentration at 10 min ([1]; plasma, iv, 1 mg/kg, IV at 1 mg/kg, 10 min, individual animals, read-out: Estimated Plasma Concentration): 299 ng/mL
- concentration at 10 min ([1]; plasma, iv, 1 mg/kg, IV at 1 mg/kg, 10 min, read-out: Estimated Plasma Concentration, Mean ± SE): 275 ± 28.4 ng/mL
- concentration at 15 min ([1]; plasma, iv, 1 mg/kg, IV at 1 mg/kg, 15 min, individual animals, read-out: Estimated Plasma Concentration): 218 ng/mL
- concentration at 15 min ([1]; plasma, iv, 1 mg/kg, IV at 1 mg/kg, 15 min, read-out: Estimated Plasma Concentration, Mean ± SE): 170 ± 24.1 ng/mL
- concentration at 30 min ([1]; plasma, iv, 1 mg/kg, IV at 1 mg/kg, 30 min, individual animals, read-out: Estimated Plasma Concentration): 145 ng/mL
- concentration at 30 min ([1]; plasma, iv, 1 mg/kg, IV at 1 mg/kg, 30 min, read-out: Estimated Plasma Concentration, Mean ± SE): 123 ± 12.1 ng/mL
- concentration at 1 h ([1]; plasma, iv, 1 mg/kg, IV at 1 mg/kg, 1 hr, individual animals, read-out: Estimated Plasma Concentration): 70.4 ng/mL
- concentration at 1 h ([1]; plasma, iv, 1 mg/kg, IV at 1 mg/kg, 1 hr, read-out: Estimated Plasma Concentration, Mean ± SE): 62.7 ± 6.4 ng/mL
- concentration at 2 h ([1]; plasma, iv, 1 mg/kg, IV at 1 mg/kg, 2 hr, individual animals, read-out: Estimated Plasma Concentration): 48.8 ng/mL
- concentration at 2 h ([1]; plasma, iv, 1 mg/kg, IV at 1 mg/kg, 2 hr, read-out: Estimated Plasma Concentration, Mean ± SE): 58.2 ± 6.2 ng/mL
- concentration at 4 h ([1]; plasma, iv, 1 mg/kg, IV at 1 mg/kg, 4 hr, individual animals, read-out: Estimated Plasma Concentration): 18.6 ng/mL
- concentration at 4 h ([1]; plasma, iv, 1 mg/kg, IV at 1 mg/kg, 4 hr, read-out: Estimated Plasma Concentration, Mean ± SE): 21.9 ± 1.6 ng/mL
- concentration at 6 h ([1]; plasma, iv, 1 mg/kg, IV at 1 mg/kg, 6 hr, individual animals, read-out: Estimated Plasma Concentration): 10.1 ng/mL
- concentration at 6 h ([1]; plasma, iv, 1 mg/kg, IV at 1 mg/kg, 6 hr, read-out: Estimated Plasma Concentration, Mean ± SE): 11.3 ± 1.1 ng/mL
- concentration at 8 h ([1]; plasma, iv, 1 mg/kg, IV at 1 mg/kg, 8 hr, individual animals, read-out: Estimated Plasma Concentration): 6.4 ng/mL
- concentration at 8 h ([1]; plasma, iv, 1 mg/kg, IV at 1 mg/kg, 8 hr, read-out: Estimated Plasma Concentration, Mean ± SE): 5.8 ± 0.5 ng/mL
- concentration at 24 h ([1]; plasma, iv, 1 mg/kg, IV at 1 mg/kg, 24 hr, individual animals, read-out: Estimated Plasma Concentration): 2.5 ng/mL
- concentration at 24 h ([1]; plasma, iv, 1 mg/kg, IV at 1 mg/kg, 24 hr, read-out: Estimated Plasma Concentration, Mean ± SE): 1.8 ± 0.4 ng/mL
- concentration at 15 min ([1]; plasma, oral, 10 mg/kg, IG at 10 mg/kg, 15 min, read-out: Estimated Plasma Concentration, Mean ± SE): 128 ± 77.2 ng/mL
- concentration at 30 min ([1]; plasma, oral, 10 mg/kg, IG at 10 mg/kg, 30 min, read-out: Estimated Plasma Concentration, Mean ± SE): 564 ± 158 ng/mL
- concentration at 1 h ([1]; plasma, oral, 10 mg/kg, IG at 10 mg/kg, 1 hr, individual animals, read-out: Estimated Plasma Concentration): 678 ng/mL
- concentration at 1 h ([1]; plasma, oral, 10 mg/kg, IG at 10 mg/kg, 1 hr, read-out: Estimated Plasma Concentration, Mean ± SE): 799 ± 60.5 ng/mL
- concentration at 2 h ([1]; plasma, oral, 10 mg/kg, IG at 10 mg/kg, 2 hr, individual animals, read-out: Estimated Plasma Concentration): 599 ng/mL
- concentration at 2 h ([1]; plasma, oral, 10 mg/kg, IG at 10 mg/kg, 2 hr, read-out: Estimated Plasma Concentration, Mean ± SE): 502 ± 75.8 ng/mL
- concentration at 4 h ([1]; plasma, oral, 10 mg/kg, IG at 10 mg/kg, 4 hr, individual animals, read-out: Estimated Plasma Concentration): 123 ng/mL
- concentration at 4 h ([1]; plasma, oral, 10 mg/kg, IG at 10 mg/kg, 4 hr, read-out: Estimated Plasma Concentration, Mean ± SE): 110 ± 20.9 ng/mL
- concentration at 6 h ([1]; plasma, oral, 10 mg/kg, IG at 10 mg/kg, 6 hr, individual animals, read-out: Estimated Plasma Concentration): 66.9 ng/mL
- concentration at 6 h ([1]; plasma, oral, 10 mg/kg, IG at 10 mg/kg, 6 hr, read-out: Estimated Plasma Concentration, Mean ± SE): 62.1 ± 7.7 ng/mL
- concentration at 8 h ([1]; plasma, oral, 10 mg/kg, IG at 10 mg/kg, 8 hr, individual animals, read-out: Estimated Plasma Concentration): 33.5 ng/mL
- concentration at 8 h ([1]; plasma, oral, 10 mg/kg, IG at 10 mg/kg, 8 hr, read-out: Estimated Plasma Concentration, Mean ± SE): 34.8 ± 5.8 ng/mL
- concentration at 24 h ([1]; plasma, oral, 10 mg/kg, IG at 10 mg/kg, 24 hr, individual animals, read-out: Estimated Plasma Concentration): 6.2 ng/mL
- concentration at 24 h ([1]; plasma, oral, 10 mg/kg, IG at 10 mg/kg, 24 hr, read-out: Estimated Plasma Concentration, Mean ± SE): 7.5 ± 0.7 ng/mL
- bioavailability ([1]; plasma, oral, dogs, IG 10 mg/kg vs IV 1 mg/kg): 33%
- Vd ([1]; plasma, read-out: Vd, Mean ± SE): 9.5 ± 1 L/kg
- half-life ([1]; plasma, read-out: t1/2, Mean ± SE (converted)): 4.7 ± 0.3 h
- Plasma Concentrations [2]: 7258 ng/mL and 9322 ng/mL
